This experiment has as its system murine neural precursor cells (neurosphere cultures). In words: HTS of LOPAC library against secondary neurosphere cultures, MTT proliferation assay at 3 μM, day 7 (z score, P value). Type of experiment: cell-based, mouse.
Where [1] appears, read: LOPAC primary screen, neurosphere MTT proliferation, 3 μM, day 7.
Setting [2] is: yes/no: significantly inhibited neurosphere proliferation (P<0.01) in the primary screen.
Where [3] appears, read: LOPAC library screen, 3 μM, MTT, neurosphere cultures.
[4] abbreviates: yes/no: significantly inhibited neurosphere proliferation (P<0.01) in primary screen.
The mark [5] stands for this setting: yes/no: significantly inhibited neurosphere proliferation in the primary screen.
The mark [6] stands for this setting: LOPAC library screen at 3 μM, secondary neurosphere cultures, MTT.
Setting [7] is: yes/no: significantly inhibited neurosphere proliferation in primary screen.
[8] abbreviates: LOPAC library screen, 3 μM, MTT, secondary neurosphere cultures, day 7.
The mark [9] stands for this setting: LOPAC screen, neurosphere MTT proliferation, 3 μM, day 7.
Where [10] appears, read: primary LOPAC screen, 3 μM, MTT, neurosphere proliferation.
The mark [11] stands for this setting: yes = significantly inhibited neurosphere proliferation (P<0.01) in the primary screen.

Consider 45 compounds from US8058243B2, “Method for treating a brain cancer with ifenprodil” (HSC Research and Development Limited Partnership, priority 2006, dated 2011).

Structures can show the parent of a compound that is named as a salt. Where two headings read alike, the source gives them in different places.

Regarding `O=C(N[C@@H](Cc1ccccc1)C(=O)CCl)OCc1ccccc1` [Z-L-Phe chloromethyl ketone], the “Z Score” value was −2.901. Besides, the Z score under setting [1] is recorded as −2.901. Moreover, the Activity entry under setting [2] is recorded as “yes”.
Consider `O=C(O)c1cc(=O)c2c(Cl)cc(Cl)cc2[nH]1` [5,7-Dichlorokynurenic acid], for which the “Z Score” value under setting [3] is reported as 0.9011. Besides, under setting [1], the Z score was found to be 0.901. For the same compound, under setting [4], the Activity result was “no”.
Regarding `O=c1ccn([C@@H]2O[C@H](COP(=O)([O-])OP(=O)([O-])[O-])[C@@H](O)[C@H]2O)c(=O)[nH]1.[Na+].[Na+].[Na+]` [Uridine 5′-diphosphate sodium], under “168 h, 3 µM”, the “Z Score” value stood at 0.7074 and the Z score is reported as 0.707. Moreover, under setting [5], the Activity result was “no”.
Consider `Cc1nc2sccn2c(=O)c1CCN1CCC(=C(c2ccc(F)cc2)c2ccc(F)cc2)CC1` [Ritanserin], for which the “Z Score” value under setting [6] was −0.6957. Under setting [1], this compound had a Z score of −0.696. Under setting [7], the Activity entry is reported as “no”.
On to `CCCN1CCC[C@@H](c2cccc(O)c2)C1.Cl` [S(−)-3PPP hydrochloride], for which the “Z Score” value was −0.4205. Also, under setting [1], the Z score is reported as −0.421. The Activity entry under setting [7] was “no”.
Under setting [1], `N[C@H](C(=O)O)c1cc(O)no1` (racemic) [(±)-Ibotenic acid] had a Z score of −1.650. Besides, under setting [4], the Activity entry is on record as “no”.
As for `CCc1cc(Cl)c(OC)c(C(=O)NC[C@@H]2CCCN2CC)c1O.Cl` [S-(−)-Eticlopride hydrohloride], the Z score under setting [1] is recorded as −5.158. Moreover, the Activity result under setting [2] is given as “yes”.
For the compound `CCOC(=O)C(C)(C)Oc1ccc(Cl)cc1` [Clofibrate], the “Z Score” value under setting [8] is −1.738. Further, under setting [9], the Z score is −1.738.
For the compound `C[N+]1(C)C2CCC1CC(OC(=O)c1c[nH]c3ccccc13)C2.[I-]` (stereo not drawn), the “Z Score” value is on record as −0.3436. The Z score under setting [10] is recorded as −0.344. Further, under setting [5], the Activity entry is recorded as “no”.
With `CC[C@H](C)[C@H]1O[C@]2(CC[C@@H]1C)C[C@@H]1C[C@@H](C/C=C(\C)[C@@H](O[C@H]3C[C@H](OC)[C@@H](O[C@H]4C[C@H](OC)[C@@H](O)[C@H](C)O4)[C@H](C)O3)[C@@H](C)/C=C/C=C3\CO[C@@H]4[C@H](O)C(C)=C[C@@H](C(=O)O1)[C@]34O)O2` [Ivermectin], the “Z Score” value worked out at 1.507. The Z score under setting [1] amounted to 1.507. Further, the Activity result under setting [4] is “no”.
With `CCS(=O)(=O)Nc1cccc(C(=C2CCCCC2)c2cnc[nH]2)c1` [A-315456], the “Z Score” value was 0.3628. Under setting [1], this compound displayed a Z score of 0.363. Further, the Activity entry under setting [11] was “no”.
Take `CCCCCCCCCCCCCCC[C@H](O)[C@H](N)CO` (racemic) [DL-erythro-Dihydrosphingosine]: the “Z Score” value under setting [3] is −0.0785. Under setting [9], this compound had a Z score of −0.079. The Activity entry under setting [4] is “no”.
As to `CC1=NS(=O)(=O)c2cc(Cl)ccc2N1` [Diazoxide], the “Z Score” value under setting [3] stood at 0.04511. Besides, the Z score under setting [9] is given as 0.045. The Activity entry under setting [4] is “no”.
Consider `Cl.Fc1ccc(C(OCCCc2c[nH]cn2)c2ccc(F)cc2)cc1`, for which the “Z Score” value is −0.01466.
As for `O=C(Nc1ccc([N+](=O)[O-])cc1Cl)c1cc(Cl)ccc1O` [Niclosamide], the “Z Score” value under setting [8] is recorded as −2.784. Under setting [1], this compound had a Z score of −2.784. In addition, under setting [2], the Activity entry is listed as “yes”.
Take `O.O.O=c1c(O)c(-c2ccc(O)c(O)c2)oc2cc(O)cc(O)c12` [Quercetin dihydrate]: the “Z Score” value is −2.302. Further, under setting [1], the Z score is listed as −2.302. Moreover, the Activity entry under setting [7] is on record as “no”.
Take `S=C(Nc1ccccc1)Nc1nccs1` [1-Phenyl-3-(2-thiazolyl)-2-thiourea]: for the setting “168 h, 3 µM”, the “Z Score” value is on record as 1.208 and the Z score is listed as 1.208. In addition, the Activity entry under setting [7] is recorded as “no”.
For the compound `COc1cc(C(O)C(=O)O)ccc1O` (stereo not drawn) [(B1)-Vanillylmandelic acid], the “Z Score” value is listed as −1.811.
Regarding (−)-Cotinine, the “Z Score” value under setting [6] is −0.5099. Moreover, the Z score under setting [9] is −0.510. In addition, the Activity entry under setting [4] is “no”.
Regarding `O=C1CCC(c2ccc(-n3ccnc3)cc2)=NN1` [Imazodan], where the note is “168 h, 3 µM”, the “Z Score” value is reported as 0.4616 and the Z score is reported as 0.462. Besides, the Activity entry under setting [4] is listed as “no”.
For “R(−)-2,10,11-Trihydroxyaporphine hybrobromide”, the “Z Score” value is reported as −3.309.
`S=C(NC1CCCCC1)N1CCC(c2cnc[nH]2)CC1` [Thioperamide maleate]: the “Z Score” value under setting [6] is given as −0.1537. For the same compound, under setting [10], the Z score is listed as −0.154. In addition, the Activity result under setting [5] is given as “no”.
`CC1(C)CCC(NC(=O)[C@@H](N)CCC(=O)O)CC1` [CR 2249]: under “168 h, 3 µM”, the “Z Score” value is reported as −1.002 and the Z score was −1.002. For the same compound, the Activity entry under setting [11] is given as “no”.
For the compound `NC(=O)c1ccc(OCC(O)CN2CC=C(c3ccc(F)cc3)CC2)cc1` (stereo not drawn) [Ro 8-4304], the “Z Score” value was −2.188. Under setting [1], this compound came in with a Z score of −2.188. Besides, the Activity result under setting [7] is on record as “no”.
Turning to `C[N+]1(C)CCN(c2ccccc2)CC1.[I-]` [1,1-Dimethyl-4-phenyl-piperazinium iodide], the “Z Score” value is reported as −1.057. This compound registered a Z score under setting [9] of −1.057. The Activity entry under setting [4] is on record as “no”.
Regarding `C[C@]12CCC(=O)C=C1CC[C@@H]1[C@@H]2[C@@H](O)C[C@@]2(C)[C@H]1CC[C@]2(O)C(=O)COC(=O)CCC(=O)[O-].[Na+]` [Hydrocortisone 21-hemisuccinate sodium], the “Z Score” value under setting [3] was −0.04033. This compound also registered a Z score under setting [1] of −0.040. Also, the Activity result under setting [4] is listed as “no”.
For the compound `C=CC[N+](C)(C)c1ccc(CCC(=O)CCc2ccc([N+](C)(C)CC=C)cc2)cc1.[Br-].[Br-]` [BW 284c51], the “Z Score” value is given as −0.4017. Under setting [10], this compound displayed a Z score of −0.402. Also, under setting [5], the Activity entry was “no”.
`CNCCC(Oc1ccccc1OC)c1ccccc1` (stereo not drawn) [Nisoxetine hydrochloride]: the “Z Score” value came to 0.8336 and the Z score is recorded as 0.834.
For `NC12CC3CC(CC(C3)C1)C2` [Amantadine hydrochloride], the “Z Score” value under setting [6] is recorded as −0.6531. The compound also returned a Z score under setting [10] of −0.653. The Activity entry under setting [5] was “no”.
Consider `CCN(CC)CCNC(=O)c1cc(Cl)c(N)cc1OC` [Metoclopramide hydrochloride], for which, where the note is “168 h, 3 µM”, the “Z Score” value was −1.992 and the Z score is reported as −1.992. For the same compound, the Activity entry under setting [2] is listed as “no”.
On to `Oc1c2ccccc2c2c3c(cccc13)N=N2` [SP600125], for which, under setting [8], the “Z Score” value is given as −1.986. Also, under setting [9], the Z score is on record as −1.986.
As for (S)-(−)-propafenone hydrochloride, under setting [6], the “Z Score” value is reported as −0.7524. The compound further gave a Z score under setting [1] of −0.752. For the same compound, under setting [7], the Activity result is “no”.
As to `CN(C)CCC=C1c2ccccc2COc2ccccc21` [Doxepin hydrochloride], where the note is “168 h, 3 µM”, the “Z Score” value is given as −1.012 and the Z score is −1.012. In addition, under setting [2], the Activity result was “no”.
Turning to `O=P(O)(O)C(Cl)(Cl)P(=O)(O)O` [Clodronic acid], the “Z Score” value under setting [6] is −0.1842. Under setting [9], this compound displayed a Z score of −0.184. Further, the Activity entry under setting [4] is listed as “no”.
Regarding `N[C@H](C(=O)O)c1cc(O)no1` [(B1)-Ibotenic acid], the “Z Score” value is −1.65.
As to `C[N+]1(C)CCC(OC(=O)C(c2ccccc2)c2ccccc2)CC1.[I-]` [4-DAMP methiodide], the “Z Score” value under setting [3] is 0.3311. Moreover, the Z score under setting [9] came to 0.331. Also, the Activity result under setting [4] is given as “no”.
Regarding `Cl.O=C(OC1CCN(CCCl)CC1)C(c1ccccc1)c1ccccc1` [4-Diphenylacetoxy-N-(2-chloroethyl)piperidine hydrochloride], the “Z Score” value came to 0.8645. This compound yielded a Z score under setting [1] of 0.864. For the same compound, the Activity entry under setting [4] was “no”.
As for `N=C(N)NCCC[C@H](N)C(=O)O` [L-Arginine], the “Z Score” value is listed as 0.5592. The Z score under setting [10] came out at 0.559. Moreover, the Activity result under setting [5] is “no”.
For `Cn1cnc2c(NC3CCCC3)ncnc21` [N6-Cyclopentyl-9-methyladenine], the “Z Score” value under setting [8] is listed as −2.112. Also, the Z score under setting [1] is on record as −2.112. The Activity entry under setting [7] is recorded as “no”.
Turning to `CC(=O)[C@H]1CC[C@H]2[C@@H]3CC=C4C[C@@H](OS(=O)(=O)[O-])CC[C@]4(C)[C@H]3CC[C@]12C.[Na+]` [Pregnenolone sulfate sodium], the “Z Score” value (LOPAC library screen at 3 μM, MTT, secondary neurosphere cultures, screened in singlets) turned out to be 2.653. The compound further showed a Z score under setting [1] of 2.653. Further, under setting [7], the Activity result is reported as “no”.
`CC(=N)NCCC[C@H](N)C(=O)O.Cl` [L-N5-(1-Iminoethyl)ornithine hydrochloride]: the “Z Score” value is reported as −0.9339. Moreover, the Z score under setting [1] is −0.934. Moreover, the Activity entry under setting [4] was “no”.
Turning to `O=C1c2c(O)cc(O)cc2OC(c2ccc(O)c(O)c2)C1O` (stereo not drawn) [(B1)-Taxifolin], the “Z Score” value is given as 1.321.
As to `COC(=O)[C@H]1[C@H]2C[C@@H]3c4[nH]c5cc(OC)ccc5c4CCN3C[C@H]2C[C@@H](OC(=O)c2cc(OC)c(OC)c(OC)c2)[C@@H]1OC` [Reserpine], under setting [6], the “Z Score” value is −1.023. Besides, the Z score under setting [1] is on record as −1.023. For the same compound, the Activity entry under setting [11] was “no”.
With `CC(=O)C(C)=NO` [2,3-Butanedione monoxime], for the setting “168 h, 3 µM”, the “Z Score” value was −1.81 and the Z score is recorded as −1.810. For the same compound, the Activity result under setting [5] is reported as “no”.
Turning to `c1ccc2c(CC3=NCCN3)cccc2c1` [Naphazoline hydrochloride], the “Z Score” value under setting [8] was −1.724. The Z score under setting [1] is given as −1.724. The Activity result under setting [11] was “no”.
